Experimental findings from patent US20240269155A1, “METHODS AND USES OF BORON COMPOUNDS IN THE TREATMENT OF NONTUBERCULOUS MYCOBACTERIUM INFECTIONS AND PHARMACEUTICAL COMPOSITIONS FOR TREATMENT OF SAME” (priority 2022, published 2024) are described below.

In general, MIC refers to the least concentration at which growth counts as inhibited. Usually half-life stands for the time needed for the level to fall by half in the phase considered. As usually defined, the AUC(0-t) is the area under the concentration-time curve up to a stated or last time point. What is called MBC is the smallest concentration meeting the test's criterion for killing.

Converted amounts (≈) assume the structure as drawn. Where two headings read alike, the source gives them in different places.

For one series, the system named is M. intercelleulare. Description: MIC determination (CLSI M24-A2). As to conditions: Mycobacterium, read-out: MIC. Type of series: cell-based, Mycobacterium intercelleulare. The method, then:
(§1) The in vitro activity of the parent boron compound described herein was assessed by standard testing procedures such as the determination of minimum inhibitory concentration (MIC) as described in Clinical and Laboratory Standards Institute (CLSI) document M24-A2. Lower MIC values indicate high antibacterial activity, while higher MIC values indicate a reduced antibacterial activity. Generally, MIC values of about ≤2 mg/L indicate a good therapeutic (i.e., suitable for therapy) potency for antibacterial drugs, while MIC values of ≥8 mg/L indicate a lack of therapeutically useful activity for a test compound.
(§2) (MIC ranges from 0.063-2 mg/L).

The next series relates to M. avium. Description: MIC determination (CLSI M24-A2). It is filed as cell-based, Mycobacterium avium. As to conditions: Mycobacterium avium, read-out: MIC. The procedure:
as §1, §2

A further series concerns M. abscessus. Kind of series: MIC determination (CLSI M24-A2). Conditions: Mycobacteroides abscessus, read-out: MIC. Type of series: cell-based, Mycobacterium abscessus. The method, then:
as §1, §2

A short description of series [1]: Lung distribution study in mouse. It is filed as in vivo, Balb/C mouse. As to conditions: 10 mg/kg po.
The next series has as its system Mycobacteria pathogens. Description: MIC against mycobacteria pathogens, summary over species. Type of series: cell-based, nontuberculous Mycobacterium.
A further series has as its system M. peregrinum. Kind of series: MIC determination (CLSI M24-A2). It is filed as cell-based, Mycobacterium peregrinum. The procedure: as §1, §2
The next series concerns M. gordonae. Kind of series: MIC determination (CLSI M24-A2). It is filed as cell-based, Mycobacterium gordonae. As to conditions: Mycobacterium gordonae, read-out: MIC. The method, then:
as §1, §2

The subject of the next series is M. smegmatis. Description: MIC determination (CLSI M24-A2). Type of series: cell-based, Mycobacterium smegmatis. The method, then:
as §1, §2

The next series concerns M. fortuitum. Kind of series: MIC determination (CLSI M24-A2). It is filed as cell-based, Mycobacterium fortuitum. The method, then: as §1, §2
The test system of the next series is M. massiliense. Description: MIC determination (CLSI M24-A2). It is filed as cell-based, Mycobacterium massiliense. Conditions: Mycobacteroides abscessus, read-out: MIC. The method, then:
as §1, §2

A further series concerns M. scrofulaceum. Kind of series: MIC determination (CLSI M24-A2). As to conditions: Mycobacterium scrofulaceum, read-out: MIC. It is filed as cell-based, Mycobacterium scrofulaceum. The procedure: as §1, §2
For series [2], the system named is clinical isolates of M. abscessus complex. Kind of series: MIC against clinical isolates of M. abscessus complex. Type of series: cell-based, M. abscessus and M. massiliense. As to conditions: Mycobacteroides abscessus, read-out: MIC.
For series [3] the test system is unchanged. Kind of series: MBC against clinical isolates of M. abscessus complex. Type of series: cell-based, M. abscessus and M. massiliense. Conditions: for Classification: from MBC/MIC ratio.
Setting [4] is: Mycolicibacterium peregrinum, read-out: MIC.
Setting [5] is: Mycolicibacterium smegmatis, read-out: MIC.
[6] abbreviates: Mycolicibacterium fortuitum, read-out: MIC.

With `CC(C)C(=O)OC[C@H](COc1cccc2c1B(O)O[C@@H]2CN)OC(=O)C(C)C.Cl` [drawing 20], the MIC in the series with M. intercelleulare, in the series with M. avium and in the series on M. abscessus was above 8 µg/mL each time.

For `CC(C)C(=O)OC[C@H](COc1cccc2c1B(O)O[C@@H]2CN)OC(=O)C(C)C.Cl` [Example 2, (2S)-1-{[(3S)-3-(Aminomethyl)-1-hydroxy-1,3-dihydrobenzo[2,1-c][1,2]oxaborol-7-yl]oxy}-3-[(2-methylpropanoyl)oxy]propan-2-yl 2-methylpropanoate hydrochloride], the AUClast in series [1] (analyte Example 2 (prodrug), lung) was determined as 968 ng·h/g. Also, the “conversion of prodrug to Example 4 in vivo” value in series [1] (plasma) was “rapidly converted to Example 4”. The half-life in series [1] (Balb/C, analyte Example 2 (prodrug), lung) is 6.42 h. For the same molecule, the AUC(0-t) in series [1] (Balb/C, analyte Example 2 (prodrug), plasma) worked out at 0.0421 ng·h/mL.

With `OB1OCc2cc(F)ccc21` [AN2690], the MIC in the series with M. intercelleulare is above 8 µg/mL; with M. avium, above 8 µg/mL; with M. peregrinum (setting [4]), above 8 µg/mL; in the series with M. gordonae it was 8 µg/mL (≈ 52.7 µM); in the series on M. smegmatis (setting [5]), above 8 µg/mL; in the series with M. fortuitum (setting [6]), above 8 µg/mL. The MIC is 4 µg/mL (≈ 26.3 µM) with M. massiliense, above 8 µg/mL in the series with M. abscessus and 8 µg/mL (≈ 52.7 µM) in the series on M. scrofulaceum. In the series on Mycobacteria pathogens (all NTM species tested), the “activity against all NTM species tested” value was “moderate or no activity”.

In the case of `Cl.NC[C@H]1OB(O)c2c(OCCO)ccc(Cl)c21` [GSK656, reference compound], the MIC in the series on M. intercelleulare was above 8 µg/mL; in [2] (clinical isolate A35) it was 0.063 µg/mL; in [2] (clinical isolate A51), 0.063 µg/mL; in [2] (clinical isolate A197), 0.063 µg/mL; in series [2] (clinical isolate A213), 0.063 µg/mL; in series [2] (clinical isolate A215) it was 0.063 µg/mL. Moreover, the MIC in series [2] (clinical isolate A217) was determined as 0.063 µg/mL; in [2] (clinical isolate A222), 0.063 µg/mL; in series [2] (clinical isolate A255), 0.063 µg/mL; in series [2] (clinical isolate A268), 0.125 µg/mL; in series [2] (clinical isolate A274), 0.125 µg/mL; in series [2] (clinical isolate A311), 0.063 µg/mL. The MIC turned out to be 0.125 µg/mL in series [2] (clinical isolate A353); 0.063 µg/mL in [2] (clinical isolate G73); 0.063 µg/mL in series [2] (clinical isolate G74); 0.063 µg/mL in series [2] (clinical isolate G87); 0.063 µg/mL in series [2] (clinical isolate G104); 0.063 µg/mL in series [2] (clinical isolate G110). Also, the MIC in series [2] (clinical isolate G164) is 0.063 µg/mL; in series [2] (clinical isolate G182), 0.063 µg/mL; with M. avium it was above 8 µg/mL; against M. peregrinum, 8 µg/mL; in the series on M. peregrinum (setting [4]), at least 8 µg/mL; in the series with M. gordonae, 0.5 µg/mL. Further, the MIC in the series on M. smegmatis is above 8 µg/mL; in the series with M. smegmatis (setting [5]), at least 8 µg/mL; in the series with M. fortuitum, above 8 µg/mL; in the series on M. fortuitum (setting [6]) it was at least 8 µg/mL; in the series with M. massiliense, 0.063 µg/mL; with M. abscessus, 0.063 µg/mL. In the series with M. scrofulaceum, the MIC turned out to be 4 µg/mL. In the series with Mycobacteria pathogens (M. fortuitum, M. peregrinum, M. smegmatis), the “fold less active than Example 4 (MIC)” value is “more than 64 fold”. Moreover, the “bactericidal/bacteriostatic classification over the isolates” value in series [3] (20 clinical isolates of M. abscessus complex) is “bacteriostatic against all isolates”. Further, the MBC was above 2 µg/mL in series [3] (Mycobacteroides abscessus, clinical isolate A35, read-out: MBC); above 2 µg/mL in series [3] (Mycobacteroides abscessus, clinical isolate A51, read-out: MBC); above 2 µg/mL in series [3] (Mycobacteroides abscessus, clinical isolate A197, read-out: MBC); 2 µg/mL in series [3] (Mycobacteroides abscessus, clinical isolate A213, read-out: MBC); 2 µg/mL in [3] (Mycobacteroides abscessus, clinical isolate A215, read-out: MBC); 2 µg/mL in series [3] (Mycobacteroides abscessus, clinical isolate A217, read-out: MBC). Besides, the MBC in series [3] (Mycobacteroides abscessus, clinical isolate A255, read-out: MBC) was 2 µg/mL; in series [3] (Mycobacteroides abscessus, clinical isolate A268, read-out: MBC), above 4 µg/mL; in [3] (Mycobacteroides abscessus, clinical isolate A274, read-out: MBC) it was above 4 µg/mL; in series [3] (Mycobacteroides abscessus, clinical isolate A311, read-out: MBC) it was 1 µg/mL; in [3] (Mycobacteroides abscessus, clinical isolate A353, read-out: MBC), 2 µg/mL; in series [3] (Mycobacteroides abscessus, clinical isolate G73, read-out: MBC) it was above 2 µg/mL. The minimum bactericidal concentration (MBC) is above 4 µg/mL in series [3] (Mycobacteroides abscessus, clinical isolate G74, read-out: MBC); above 2 µg/mL in series [3] (Mycobacteroides abscessus, clinical isolate G87, read-out: MBC); 2 µg/mL in series [3] (Mycobacteroides abscessus, clinical isolate G104, read-out: MBC); above 2 µg/mL in series [3] (Mycobacteroides abscessus, clinical isolate G110, read-out: MBC); above 2 µg/mL in series [3] (Mycobacteroides abscessus, clinical isolate G164, read-out: MBC); above 2 µg/mL in series [3] (Mycobacteroides abscessus, clinical isolate G182, read-out: MBC). The MBC entry in series [3] (clinical isolate A222) is “>>”. The Classification entry in series [3] (clinical isolate A35), in series [3] (clinical isolate A51), in [3] (clinical isolate A197), in series [3] (clinical isolate A213), in [3] (clinical isolate A215) and in series [3] (clinical isolate A217) was “Bacteriostatic (bacteriostatic if the ratio was >4)” each time. Besides, the Classification result in series [3] (clinical isolate A222), in series [3] (clinical isolate A232), in series [3] (clinical isolate A255), in series [3] (clinical isolate A268), in series [3] (clinical isolate A274) and in [3] (clinical isolate A311) was “Bacteriostatic (bacteriostatic if the ratio was >4)” in each case. The Classification entry in series [3] (clinical isolate A353), in series [3] (clinical isolate G73), in series [3] (clinical isolate G74), in series [3] (clinical isolate G87), in [3] (clinical isolate G104) and in series [3] (clinical isolate G110) was “Bacteriostatic (bacteriostatic if the ratio was >4)” in each case. For the same molecule, the Classification result in series [3] (clinical isolate G164) and in series [3] (clinical isolate G182) was “Bacteriostatic (bacteriostatic if the ratio was >4)” throughout.
